Results: PubChem BioAssay AID1963838 (Molecular Pharmacology Branch, DTP, NCI, 2024)

Test system: 855422-203-R-J1-PDC complex spheroid viability
Assay: Anticancer human tumor 855422-203-R-J1-PDC patient-derived bladder carcinoma cell line growth inhibition [POLQ]
Details: for IC50: curve of first compound; for viability, T/C: stronger effect = lower value
Procedure, shortened: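 Patient-derived tumour cells were co-cultured with HUVEC and mesenchymal stem cells as multicellular spheroids at 37 °C. They were treated with POLQ inhibitors (novobiocin, ART-558, RP6685) alone or combined with other agents. Top concentrations were at or near clinical Cmax (otherwise 10 microM; SN-38 at 1 microM), decreasing in half-log steps.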

[1] = second compound 0.0316 µM, first compound 0.0316 µM
[2] = second compound 0.0316 µM, first compound 0.1 µM
[3] = second compound 0.0316 µM, first compound 0.316 µM
[4] = second compound 0.0316 µM, first compound 1 µM
[5] = second compound 0.0316 µM, first compound 3.16 µM
[6] = second compound 0.0316 µM, first compound 10 µM
[7] = second compound 0.1 µM, first compound 0.0316 µM
[8] = second compound 0.1 µM, first compound 0.1 µM
[9] = second compound 0.1 µM, first compound 0.316 µM
[10] = second compound 0.1 µM, first compound 1 µM
[11] = second compound 0.1 µM, first compound 3.16 µM
[12] = second compound 0.1 µM, first compound 10 µM
[13] = second compound 0.316 µM, first compound 0.0316 µM
[14] = second compound 0.316 µM, first compound 0.1 µM
[15] = second compound 0.316 µM, first compound 0.316 µM
[16] = second compound 0.316 µM, first compound 1 µM
[17] = second compound 0.316 µM, first compound 3.16 µM
[18] = second compound 0.316 µM, first compound 10 µM
[19] = second compound 1 µM, first compound 0.0316 µM
[20] = second compound 1 µM, first compound 0.1 µM
[21] = second compound 1 µM, first compound 0.316 µM
[22] = second compound 1 µM, first compound 1 µM
[23] = second compound 1 µM, first compound 3.16 µM
[24] = second compound 1 µM, first compound 10 µM
[25] = second compound 3.16 µM, first compound 0.0316 µM
[26] = second compound 3.16 µM, first compound 0.1 µM
[27] = second compound 3.16 µM, first compound 0.316 µM
[28] = second compound 3.16 µM, first compound 1 µM
[29] = second compound 3.16 µM, first compound 3.16 µM
[30] = second compound 3.16 µM, first compound 10 µM
[31] = second compound 10 µM, first compound 0.0316 µM
[32] = second compound 10 µM, first compound 0.1 µM
[33] = second compound 10 µM, first compound 0.316 µM
[34] = second compound 10 µM, first compound 1 µM
[35] = second compound 10 µM, first compound 3.16 µM
[36] = second compound 10 µM, first compound 10 µM
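Also: spheroids exposed to compounds for seven days before readout.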

In the case of `CC1COCCN1c1cc(-c2ccnn2C)c2ccnc(-c3ccn[nH]3)c2n1` (stereo not drawn) + Nc1ccc(C#CCN(C(=O)Cc2ncc(C(F)(F)F)cc2C(F)(F)F)c2ccc(F)cc2)nn1, the IC50 (second compound 0.0316 µM) is reported as 0.255 µM, the IC50 (second compound 0.1 µM) is reported as 0.275 µM and the IC50 (second compound 0.316 µM) is reported as 0.253 µM. The IC50 (second compound 1 µM) was 0.203 µM, the IC50 (second compound 3.16 µM) was 0.234 µM and the IC50 (second compound 10 µM) was 0.202 µM. For the same compound, the viability, T/C [1] was 124%, the viability, T/C [2] was 124% and the viability, T/C [3] was 33.2%. It also gave a viability, T/C [4] of 16%, a viability, T/C [5] of 13.6% and a viability, T/C [6] of 12.8%. For the same compound, the viability, T/C [7] was 118%, the viability, T/C [8] was 159% and the viability, T/C [9] was 37.7%. It also gave a viability, T/C [10] of 17.4%, a viability, T/C [11] of 11.8% and a viability, T/C [12] of 11.9%. It also gave a viability, T/C [13] of 128%, a viability, T/C [14] of 140% and a viability, T/C [15] of 30%. The viability, T/C [16] was 13.2%, the viability, T/C [17] was 11.3% and the viability, T/C [18] was 10.5%. For the same compound, the viability, T/C [19] was 119%, the viability, T/C [20] was 92.5% and the viability, T/C [21] was 23.3%. It also gave a viability, T/C [22] of 15.3%, a viability, T/C [23] of 12.6% and a viability, T/C [24] of 8.88%. It also gave a viability, T/C [25] of 102%, a viability, T/C [26] of 128% and a viability, T/C [27] of 27.1%. The viability, T/C [28] was 15.1%, the viability, T/C [29] was 10.3% and the viability, T/C [30] was 8.61%. The viability, T/C [31] was 119%, the viability, T/C [32] was 88.8% and the viability, T/C [33] was 25.2%. For the same compound, the viability, T/C [34] was 12.9%, the viability, T/C [35] was 11.1% and the viability, T/C [36] was 10.7%.
Work on `CC1COCCN1c1cc(C2(S(C)(=N)=O)CC2)nc(-c2ccnc3[nH]ccc23)n1` (stereo not drawn) + Nc1ccc(C#CCN(C(=O)Cc2ncc(C(F)(F)F)cc2C(F)(F)F)c2ccc(F)cc2)nn1 yielded an IC50 (second compound 0.0316 µM) of 5.25 µM, an IC50 (second compound 0.1 µM) of 3.92 µM and an IC50 (second compound 0.316 µM) of 3.05 µM. The IC50 (second compound 1 µM) was 3.4 µM, the IC50 (second compound 3.16 µM) was 2.89 µM and the IC50 (second compound 10 µM) was 2.53 µM. The viability, T/C [1] was 104%, the viability, T/C [2] was 98.9% and the viability, T/C [3] was 132%. The viability, T/C [4] was 98.2%, the viability, T/C [5] was 78.2% and the viability, T/C [6] was 14.9%. The viability, T/C [7] was 111%, the viability, T/C [8] was 124% and the viability, T/C [9] was 99.8%. The viability, T/C [10] was 187%, the viability, T/C [11] was 57.6% and the viability, T/C [12] was 16.6%. For the same compound, the viability, T/C [13] was 95.4%, the viability, T/C [14] was 111% and the viability, T/C [15] was 102%. The viability, T/C [16] was 180%, the viability, T/C [17] was 47.8% and the viability, T/C [18] was 13.9%. For the same compound, the viability, T/C [19] was 93.3%, the viability, T/C [20] was 108% and the viability, T/C [21] was 116%. The viability, T/C [22] was 144%, the viability, T/C [23] was 52.4% and the viability, T/C [24] was 14.1%. The viability, T/C [25] was 111%, the viability, T/C [26] was 91.7% and the viability, T/C [27] was 119%. For the same compound, the viability, T/C [28] was 189%, the viability, T/C [29] was 43.2% and the viability, T/C [30] was 11.3%. For the same compound, the viability, T/C [31] was 97.7%, the viability, T/C [32] was 96.1% and the viability, T/C [33] was 113%. For the same compound, the viability, T/C [34] was 152%, the viability, T/C [35] was 34.3% and the viability, T/C [36] was 11.3%.
With `COc1ccc([C@@H](O)c2cc(-c3ncnc4cc(N5CCOCC5)ccc34)c(F)cc2Cl)nn1` + Nc1ccc(C#CCN(C(=O)Cc2ncc(C(F)(F)F)cc2C(F)(F)F)c2ccc(F)cc2)nn1 the IC50 (second compound 0.0316 µM) was > 10 µM, the IC50 (second compound 0.1 µM) was > 10 µM and the IC50 (second compound 0.316 µM) was > 10 µM. For the same compound, the IC50 (second compound 1 µM) was > 10 µM, the IC50 (second compound 3.16 µM) was > 10 µM and the IC50 (second compound 10 µM) was 9.83 µM. For the same compound, the viability, T/C [1] was 110%, the viability, T/C [2] was 105% and the viability, T/C [3] was 89%. It also gave a viability, T/C [4] of 94.5%, a viability, T/C [5] of 106% and a viability, T/C [6] of 58.4%. For the same compound, the viability, T/C [7] was 91.8%, the viability, T/C [8] was 104% and the viability, T/C [9] was 104%. The viability, T/C [10] was 98.1%, the viability, T/C [11] was 106% and the viability, T/C [12] was 59.4%. For the same compound, the viability, T/C [13] was 115%, the viability, T/C [14] was 126% and the viability, T/C [15] was 86.4%. The viability, T/C [16] was 98.5%, the viability, T/C [17] was 110% and the viability, T/C [18] was 54.3%. It also gave a viability, T/C [19] of 99.8%, a viability, T/C [20] of 96.8% and a viability, T/C [21] of 93.4%. It also gave a viability, T/C [22] of 104%, a viability, T/C [23] of 111% and a viability, T/C [24] of 51%. It also gave a viability, T/C [25] of 94.6%, a viability, T/C [26] of 105% and a viability, T/C [27] of 87.5%. The viability, T/C [28] was 94.2%, the viability, T/C [29] was 90.7% and the viability, T/C [30] was 57.4%. It also gave a viability, T/C [31] of 92.3%, a viability, T/C [32] of 92.5% and a viability, T/C [33] of 98.3%. It also gave a viability, T/C [34] of 86.2%, a viability, T/C [35] of 98.6% and a viability, T/C [36] of 49.3%.
With `Cn1ncnc1[C@H]1c2n[nH]c(=O)c3cc(F)cc(c23)N[C@@H]1c1ccc(F)cc1` + Nc1ccc(C#CCN(C(=O)Cc2ncc(C(F)(F)F)cc2C(F)(F)F)c2ccc(F)cc2)nn1 the IC50 (second compound 0.0316 µM) was > 0.1 µM, the IC50 (second compound 0.1 µM) was > 0.1 µM and the IC50 (second compound 0.316 µM) was > 0.1 µM. For the same compound, the IC50 (second compound 1 µM) was > 0.1 µM, the IC50 (second compound 3.16 µM) was > 0.1 µM and the IC50 (second compound 10 µM) was > 0.1 µM. It also gave a viability, T/C (second compound 0.0316 µM, first compound 0.000316 µM) of 96.1%, a viability, T/C (second compound 0.0316 µM, first compound 0.001 µM) of 125% and a viability, T/C (second compound 0.0316 µM, first compound 0.00316 µM) of 96%. For the same compound, the viability, T/C (second compound 0.0316 µM, first compound 0.01 µM) was 82%, the viability, T/C [1] was 110% and the viability, T/C [2] was 132%. For the same compound, the viability, T/C (second compound 0.1 µM, first compound 0.000316 µM) was 88.6%, the viability, T/C (second compound 0.1 µM, first compound 0.001 µM) was 157% and the viability, T/C (second compound 0.1 µM, first compound 0.00316 µM) was 92%. For the same compound, the viability, T/C (second compound 0.1 µM, first compound 0.01 µM) was 104%, the viability, T/C [7] was 119% and the viability, T/C [8] was 147%. The viability, T/C (second compound 0.316 µM, first compound 0.000316 µM) was 91.7%, the viability, T/C (second compound 0.316 µM, first compound 0.001 µM) was 154% and the viability, T/C (second compound 0.316 µM, first compound 0.00316 µM) was 91.4%. For the same compound, the viability, T/C (second compound 0.316 µM, first compound 0.01 µM) was 106%, the viability, T/C [13] was 96.2% and the viability, T/C [14] was 181%. It also gave a viability, T/C (second compound 1 µM, first compound 0.000316 µM) of 98.8%, a viability, T/C (second compound 1 µM, first compound 0.001 µM) of 154% and a viability, T/C (second compound 1 µM, first compound 0.00316 µM) of 96%. For the same compound, the viability, T/C (second compound 1 µM, first compound 0.01 µM) was 93.2%, the viability, T/C [19] was 115% and the viability, T/C [20] was 153%. The viability, T/C (second compound 3.16 µM, first compound 0.000316 µM) was 92%, the viability, T/C (second compound 3.16 µM, first compound 0.001 µM) was 135% and the viability, T/C (second compound 3.16 µM, first compound 0.00316 µM) was 95.7%. The viability, T/C (second compound 3.16 µM, first compound 0.01 µM) was 106%, the viability, T/C [25] was 134% and the viability, T/C [26] was 122%. For the same compound, the viability, T/C (second compound 10 µM, first compound 0.000316 µM) was 93.2%, the viability, T/C (second compound 10 µM, first compound 0.001 µM) was 110% and the viability, T/C (second compound 10 µM, first compound 0.00316 µM) was 88.3%. The viability, T/C (second compound 10 µM, first compound 0.01 µM) was 100%, the viability, T/C [31] was 102% and the viability, T/C [32] was 132%.
